Source: patent publication US10544149B2, “Bicyclic alkyne derivatives and uses thereof” (Agency for Science, Technology and Research, priority 2013, dated 2020)
Counter-ions that a name gives are not always drawn.

Experiments:
[1] = target: MNK1 (Homo sapiens, UniProt Q9BUB5); assay: MNK1 enzymatic assay; type: biochemical
[2] = target: MNK2 (Homo sapiens, UniProt Q9HBH9); assay: MNK2 enzymatic assay; type: biochemical
[3] = system: eIF4e phosphorylation in Hela cell line; assay: eIF4e phosphorylation inhibition in Hela cell line; type: cell-based; conditions: Homo sapiens, cellular

Chain of MNK2 (Q9HBH9 whole entry): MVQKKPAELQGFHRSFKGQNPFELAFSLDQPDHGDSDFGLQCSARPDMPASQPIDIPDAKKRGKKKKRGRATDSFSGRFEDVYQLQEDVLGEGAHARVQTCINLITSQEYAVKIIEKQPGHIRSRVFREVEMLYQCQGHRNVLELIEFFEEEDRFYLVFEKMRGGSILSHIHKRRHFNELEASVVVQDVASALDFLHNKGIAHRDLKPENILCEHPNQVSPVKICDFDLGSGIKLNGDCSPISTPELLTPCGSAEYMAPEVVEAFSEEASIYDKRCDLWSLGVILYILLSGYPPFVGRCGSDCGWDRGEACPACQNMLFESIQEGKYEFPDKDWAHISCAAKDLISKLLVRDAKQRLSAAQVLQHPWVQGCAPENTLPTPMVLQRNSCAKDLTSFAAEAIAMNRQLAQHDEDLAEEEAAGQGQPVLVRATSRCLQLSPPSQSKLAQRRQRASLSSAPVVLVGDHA
Chain of MNK1 (Q9BUB5 whole entry): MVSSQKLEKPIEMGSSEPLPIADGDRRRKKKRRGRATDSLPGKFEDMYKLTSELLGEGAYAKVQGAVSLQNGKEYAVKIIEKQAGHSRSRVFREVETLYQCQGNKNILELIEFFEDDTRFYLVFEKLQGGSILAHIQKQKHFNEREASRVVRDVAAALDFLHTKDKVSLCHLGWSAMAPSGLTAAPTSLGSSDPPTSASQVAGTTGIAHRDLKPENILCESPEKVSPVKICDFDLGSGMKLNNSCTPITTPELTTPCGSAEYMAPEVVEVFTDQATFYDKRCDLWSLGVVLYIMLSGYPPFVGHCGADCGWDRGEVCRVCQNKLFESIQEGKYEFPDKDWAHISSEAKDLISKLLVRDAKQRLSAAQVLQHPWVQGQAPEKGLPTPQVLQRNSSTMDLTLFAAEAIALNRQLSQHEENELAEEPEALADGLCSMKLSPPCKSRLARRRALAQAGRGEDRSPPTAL

SMILES | melting point | IC50 [1] | IC50 [2] | IC50 [3]
O=C(c1ccc(-c2ccc3ncc(C#Cc4ccncc4)n3c2)cc1)N1CCOCC1 [Example 94, morpholino(4-(3-(pyridin-4-ylethynyl)imidazo[1,2-a]pyridin-6-yl)phenyl)methanone] | 165 to 166 °C |  |  | 
CN1CCN(C(=O)c2ccc(-c3ccc4ncc(C#Cc5ccnc6[nH]ccc56)n4n3)cc2)CC1=O [Example 85, 4-(4-(3-((1H-pyrrolo[2,3-b]pyridin-4-yl)ethynyl)imidazo[1,2-b]pyridazin-6-yl)benzoyl)-1-methylpiperazin-2-one] | 207.2 to 208.2 °C |  |  | 
Nc1cc(C#Cc2cnc3ccc(-c4ccc(C(=O)N5CCOCC5)c(Cl)c4)nn23)ccn1 [Example 82, (4-(3-((2-aminopyridin-4-yl)ethynyl)imidazo[1,2-b]pyridazin-6-yl)-2-chlorophenyl)(morpholino)methanone] | 193.7 to 194.8 °C |  |  | 
CC(=O)Nc1cc(C#Cc2cnc3ccc(-c4ccc(C(=O)N5CCN(C)C(=O)C5)cc4)nn23)ccn1 [Example 84, N-(4-((6-(4-(4-methyl-3-oxopiperazine-1-carbonyl)phenyl)imidazo[1,2-b]pyridazin-3-yl)ethynyl)pyridin-2-yl)acetamide] | 258.2 to 259.5 °C |  |  | 
O=C(c1ccc(-c2cn3c(C#Cc4ccnc5[nH]ncc45)cnc3cn2)cc1)N1CCOCC1 [Example 90, (4-(3-((1H-pyrazolo[3,4-b]pyridin-4-yl)ethynyl)imidazo[1,2-a]pyrazin-6-yl)phenyl) (morpholino)methanone] | 192.8 to 193.8 °C |  |  | 
CC(=O)Nc1cc(C#Cc2cnc3ccc(-c4ccc(C(=O)N5CCN(C)CC5)cc4)nn23)ccn1 [Example 87, N-(4-((6-(4-(4-methylpiperazine-1-carbonyl)phenyl)imidazo[1,2-b]pyridazin-3-yl)ethynyl)pyridin-2-yl)acetamide] | 216.8 to 217.9 °C |  |  | 
Nc1cc(C#Cc2cnc3ccc(-c4ccc(C(=O)N5CCOCC5)c(C(F)(F)F)c4)nn23)ccn1 [Example 83, (4-(3-((2-aminopyridin-4-yl)ethynyl)imidazo[1,2-b]pyridazin-6-yl)-2-(trifluoromethyl)phenyl) (morpholino)methanone] | 258.5 to 258.9 °C |  |  | 
Nc1cc(C#Cc2cnc3cnc(-c4ccc(C(=O)N5CCOCC5)cc4)cn23)ccn1 [Example 88, (4-(3-((2-aminopyridin-4-yl)ethynyl)imidazo[1,2-a]pyrazin-6-yl)phenyl)(morpholino)methanone] | 143.5 to 144.2 °C |  |  | 
CN1CCN(C(=O)c2ccc(-c3ccc4ncc(C#Cc5ccnc(N)c5)n4n3)cc2)CC1 [Example 76, (4-(3-((2-aminopyridin-4-yl)ethynyl)imidazo[1,2-b]pyridazin-6-yl)phenyl)(4-methylpiperazin-1-yl)methanone] | 120 to 122 °C |  |  | 
CN1CCN(C(=O)c2ccc(-c3ccc4ncc(C#Cc5ccnc(N)c5)n4n3)cc2)CC1=O [Example 77, 4-(4-(3-((2-aminopyridin-4-yl)ethynyl)imidazo[1,2-b]pyridazin-6-yl)benzoyl)-1-methylpiperazin-2-one] | 193.6 to 194.6 °C |  |  | 
CN1CCN(C(=O)c2ccc(-c3ccc4ncc(C#Cc5ccncc5)n4n3)cc2)CC1 [Example 005, (4-methylpiperazin-1-yl) (4-(3-(pyridin-4-ylethynyl)imidazo[1,2-b]pyridazin-6-yl)phenyl)methanone] |  | < 0.5 µM | < 0.5 µM | < 5 µM
O=C(c1ccc(-c2ccc3ncc(C#Cc4ccnc(Nc5ccccc5C(F)(F)F)c4)n3n2)cc1)N1CCOCC1 [Example 055, morpholino(4-(3-((2-((2-(trifluoromethyl)phenyl)amino)pyridin-4-yl)ethynyl)imidazo[1,2-b]pyridazin-6-yl)phenyl)methanone] |  | < 0.5 µM | < 0.5 µM | < 5 µM
Nc1cc(C#Cc2cnc3cnc(-c4ccc(C(=O)N5CCOCC5)c(Cl)c4)cn23)ccn1 [Example 93, (4-(3-((2-aminopyridin-4-yl)ethynyl)imidazo[1,2-a]pyrazin-6-yl)-2-chlorophenyl) (morpholino)methanone] | 119.8 to 121.1 °C |  |  | 
O=C(c1ccc(-c2ccc3ncc(C#Cc4c(C(F)(F)F)cnc5[nH]ccc45)n3n2)cc1)N1CCOCC1 [Example 031, morpholino(4-(3-((5-(trifluoromethyl)-1H-pyrrolo[2,3-b]pyridin-4-yl)ethynyl)imidazo[1,2-b]pyridazin-6-yl)phenyl)methanone] |  | < 0.5 µM | < 0.5 µM | < 5 µM
O=C(c1ccc(-c2ccc3ncc(C#Cc4cnc5cc[nH]c5c4)n3n2)cc1)N1CCOCC1 [Example 020, (4-(3-((1H-pyrrolo[3,2-b]pyridin-6-yl)ethynyl)imidazo[1,2-b]pyridazin-6-yl)phenyl) (morpholino)methanone] |  | < 0.5 µM | < 0.5 µM | < 5 µM
Cc1ccncc1C#Cc1cnc2ccc(-c3ccc(C(=O)N4CCOCC4)cc3)nn12 [Example 022] |  | < 0.5 µM | < 0.5 µM | < 5 µM
CC(=O)Nc1cccc(C#Cc2cnc3ccc(-c4ccc(C(=O)N5CCOCC5)cc4)nn23)c1 [Example 013, N-(3-((6-(4-(morpholine-4-carbonyl)phenyl)imidazo[1,2-b]pyridazin-3-yl)ethynyl)phenyl)acetamide] |  | < 0.5 µM | < 0.5 µM | < 5 µM
O=C(Nc1cc(C#Cc2cnc3ccc(-c4ccc(C(=O)N5CCOCC5)cc4)nn23)ccn1)c1cccnc1 [Example 065, N-(4-((6-(4-(morpholine-4-carbonyl)phenyl)imidazo[1,2-b]pyridazin-3-yl)ethynyl)pyridin-2-yl)nicotinamide] |  | < 0.5 µM | < 0.5 µM | < 5 µM
Cc1cnccc1C#Cc1cnc2ccc(-c3ccc(C(=O)N4CCOCC4)cc3)cn12 [Example 95, (4-(3-((3-methylpyridin-4-yl)ethynyl)imidazo[1,2-a]pyridin-6-yl)phenyl) (morpholino)methanone] | 99 to 104 °C |  |  | 
CNCC(=O)Nc1cc(C#Cc2cnc3ccc(-c4ccc(C(=O)N5CCOCC5)cc4)nn23)ccn1 [Example 044, 2-(methylamino)-N-(4-((6-(4-(morpholine-4-carbonyl)phenyl)imidazo[1,2-b]pyridazin-3-yl)ethynyl)pyridin-2-yl)acetamide] |  | < 0.5 µM | < 0.5 µM | < 5 µM

More lines, now with the values ahead:

melting point | IC50 [1] | IC50 [2] | IC50 [3] | SMILES
245 to 254 °C | < 0.5 µM | < 0.5 µM | < 5 µM | Nc1ncc(C#Cc2cnc3ccc(-c4ccc(C(=O)N5CCOCC5)cc4)nn23)s1 [Example 121, (4-(3-((2-aminothiazol-5-yl)ethynyl)imidazo[1,2-b]pyridazin-6-yl)phenyl) (morpholino)methanone]
57.6 to 58.9 °C |  |  |  | Nc1cc(C#Cc2cnn3ccc(-c4ccc(C(=O)N5CCOCC5)cc4F)nc23)ccn1 (as salt: salt) [Example 123, (4-(3-((2-aminopyridin-4-yl)ethynyl)pyrazolo[1,5-a]pyrimidin-5-yl)-3-fluorophenyl)(morpholino) methanone formic acid salt]
78.2 to 79.4 °C |  |  |  | Nc1cc(C#Cc2cnc3ccc(-c4ccc(C(=O)N5CCOCC5)cc4F)nn23)ccn1 (as salt: salt) [Example 122, (4-(3-((2-aminopyridin-4-yl)ethynyl)imidazo[1,2-b]pyridazin-6-yl)-3-fluorophenyl)(morpholino)methanone formate salt]
129.8 to 130.6 °C |  |  |  | Nc1cc(C#Cc2cnn3ccc(-c4ccc(C(=O)N5CCOCC5)cc4)nc23)ccn1 [Example 117, (4-(3-((2-aminopyridin-4-yl)ethynyl)pyrazolo[1,5-a]pyrimidin-5 yl)phenyl)(morpholino)methanone]
 | < 0.5 µM | < 0.5 µM | < 5 µM | O=C(Nc1cc(C#Cc2cnc3ccc(-c4ccc(C(=O)N5CCNCC5)cc4)cn23)ccn1)c1ccccc1 [Example 103, (N-(4-((6-(4-(piperazine-1-carbonyl)phenyl)imidazo[1,2-a]pyridin-3-yl)ethynyl)pyridin-2-yl)benzamide)]
133 to 138 °C |  |  |  | Nc1cc(C#Cc2cnc3ccc(-c4ccc(C(=O)N5CCOCC5)cc4)cn23)ccn1 [Example 96, (4-(3-((2-aminopyridin-4-yl)ethynyl)imidazo[1,2-a]pyridin-6-yl)phenyl)(morpholino)methanone]
 | < 0.5 µM | < 0.5 µM | < 5 µM | Nc1cc(C#Cc2cnc3ccc(-c4ccc(C(=O)N5CCOCC5)cc4)cn23)c2cc[nH]c2n1 [Example 098, (4-(3-((6-amino-1H-pyrrolo[2,3-b]pyridin-4-yl)ethynyl)imidazo[1,2-a]pyridin-6-yl)phenyl)(morpholino)methanone]
 | < 0.5 µM | < 0.5 µM | < 5 µM | O=C(c1ccc(-c2ccc3ncc(C#Cc4ccnc5[nH]ccc45)n3c2)cc1)N1CCOCC1 [Example 099, (4-(3-((1H-pyrrolo[2,3-b]pyridin-4-yl)ethynyl)imidazo[1,2-a]pyridin-6-yl)phenyl)(morpholino)methanone]
 | < 0.5 µM | < 0.5 µM | < 5 µM | O=C(c1ccc(-c2ccc3ncc(C#Cc4ccnc(Nc5cccnc5)c4)n3c2)cc1)N1CCNCC1 [Example 105, piperazin-1-yl(4-(3-((2-(pyridin-3-ylamino)pyridin-4-yl)ethynyl)imidazo[1,2-a]pyridin-6-yl)phenyl)methanone]
 | < 0.5 µM | < 0.5 µM | < 5 µM | Cc1ncccc1Nc1cc(C#Cc2cnc3ccc(-c4ccc(C(=O)N5CCNCC5)cc4)cn23)ccn1 [Example 107, (4-(3-((2-(2-methylpyridin-3-ylamino)pyridin-4-yl)ethynyl)imidazo[1,2-a]pyridin-6-yl)phenyl)(piperazin-1-yl)methanone]
 | < 0.5 µM | < 0.5 µM | < 5 µM | Nc1cc(C#Cc2cnc3ccc(-c4ccc(C(=O)N5CCNCC5)cc4)cn23)c2cc[nH]c2n1 [Example 111, (4-(3-((6-amino-1H-pyrrolo[2,3-b]pyridin-4-yl)ethynyl)imidazo[1,2-a]pyridin-6-yl)phenyl)(piperazin-1-yl)methanone]
